Test results from patent US8663646B2, “P53 peptide vaccine” (priority 2007, dated 2014).
Read-outs that look alike come from different tables or passages of the source. Where no end group is shown, it is not given here.

Legend:
HLA-A*0301 [1] = target: T1, HLA-A*0301 (Homo sapiens, UniProt P04439); assay: Competition based cellular binding assay, HLA-A*0301 (B-cell line EKR); details: for HLA binding Affinity (Table 5): HLA type A3; for IC50 / Peptide Binding Affinity: HLA-A*0301, IC50 category; for IC50: read-out: Peptide Binding Affinity
T1 construct: B-cell lines used are: CAA (A*0101), EKR (A*0301), BVR (A*1101), VIJF (A*2401); endogenous in cells; host or cells: B-cell line EKR

HLA-A*0301 [2] = target: T1, HLA-A*0301; assay: Stability of peptide-HLA complex, binding at 4° C. and 20° C., HLA-A*0301; details: for HLA binding Stability (Table 5): HLA type A3; for Peptide Binding Stability: HLA-A*0301, IC50 at 20° C. vs 4° C.
Procedure: (§1) Stability of other peptide-HLA complexes was preferably determined as follows. […] Peptides of >50% of the initial complexes was lost within 2 hours were considered unstable. […] The rest was designated as unstable peptide binding.
(§2) Peptides 8-11 residues in length were selected based on typical anchor residues for HLA-A*0101, A*0301, A*1101 and HLA-A*2401 (Rammensee H G et al). The capacity of peptides to bind was tested in a competition based cellular binding assay as previously described (van der Burg S H et al 1995). FL-labeled reference peptides were synthesized as Cys-derivative (van der Burg S H et al 1995). Fluorescence labeled reference peptides used were: YLEPAC(FL)AK (SEQ ID NO: 87) (HLA-A*0101) and KVFPC(FL)ALINK (SEQ ID NO: 88) (HLA-A*1101) (Sette A et al), KVFPC(FL)ALINK (SEQ ID NO: 89) (HLAA*0301) (van der Burg S H et al 1995) and RYLKC(FL)QQLL (SEQ ID NO: 90) (A*2401) (Dai L C et al). B-cell lines used are: CAA (A*0101), EKR (A*0301), BVR (A*1101), VIJF (A*2401). The relative binding capacity of the peptides is expressed as the peptide concentration to inhibit 50% (1050) of the binding of the reference peptide. […] Peptide stabilization for HLA-A*0201 was performed as previously described (van der Burg S H et al, 1996). Peptides of >50% of the initial complexes was lost within 2 hours were considered unstable. Stability of other peptide-HLA complexes was determined as follows. Peptide binding was performed at 4° C. and 20° C. and 1050 were determined. […] The rest was designated as unstable peptide binding.

[3] = target: T2, 20S immuno-proteasomes from mouse B-cell line (RMA) (Mus musculus, UniProt O35955+P28063+P28076); assay: In vitro proteasome mediated digestion of 30-mers, mass spectrometry, immunoproteasome RMA; assay type: biochemical; details: 30 residue long precursor peptides
T2 construct: 20S immuno-proteasomes were purified from a mouse B-cell line (RMA); endogenous in cells; host or cells: RMA cells; 20S proteasome purified from them
Procedure: (§3) In the context of the invention, “being inefficiently processed by a proteasome” preferably means that within the first hour of digestion by a proteasome less than 1% of total digested peptide is found. The processing by a proteasome is preferably assessed by incubating a purified proteasome, more preferably a human proteasome with a peptide comprising the potential CTL epitope (30 amino acid length approximately) in a proteasome digestion buffer during at least one hour at 37° C. The reaction is subsequently stopped by adding trifluoroacetic acid. Analysis of the digested peptides is performed with electrospray ionization mass spectrometry (see example 1). Even more preferably, the human proteasome is an immunoproteasome from B-LCL JY cells (Kessler J H et al. 2001).
(§4) 20S immuno-proteasomes were purified from a mouse B-cell line (RMA) and a human B-LCL cell line (JY) and 20S household proteasomes were purified from human tumor cell line (HeLa) as described (Kessler J H et al 2001). To assess kinetics, digestions were performed with different incubation periods as indicated. Briefly, peptides containing the (potential) CTL epitopes (30 mers, 20 μg) were incubated with 1 μg of purified proteasome at 37° C. for 1 h, 4 h and 24 h in 300 μl proteasome digestion buffer, trifluoroacetic acid (30 μl) was added to stop the digestion and samples were stored at −20° C. before mass spectrometric analysis. Electrospray ionization mass spectrometry was performed on a hybrid quadrupole time-of-flight mass spectromter, a Q-TOF (Micromass), equipped with an on-line nanoelectrospray interface with an approximate flow rate of […] as described (Kessler J H et al 2001). The peaks in the mass spectrum were searched in the digested precursor peptide using the Biolynx/proteins software (Micromass) supplied with the mass spectrometer. The intensity of the peaks in the mass spectra was used to establish the relative amounts of peptides generated after proteasome digestion. The relative amounts of the peptides are given as a percentage of the total amount of peptide digested by the proteasome at the indicated incubation time. Major cleavage sites are defined as more than >1% of total digested peptide within the first hour.

[4] = target: T3, 20S immuno-proteasomes from human B-LCL cell line (JY) (Homo sapiens, UniProt P28062+P28065+P40306); assay: In vitro proteasome mediated digestion of 30-mers, mass spectrometry, immunoproteasome JY; assay type: biochemical; details: 30 residue long precursor peptides
T3 construct: purified from a mouse B-cell line (RMA) and a human B-LCL cell line (JY); endogenous in cells; host or cells: B-LCL JY cells; 20S proteasome purified from them
Procedure: as §3, §4

HLA-A*1101 [5] = target: T4, HLA-A*1101 (Homo sapiens, UniProt P04439, A114D/D185E/E176A/F33Y/L180Q/S129P/T187R); assay: Competition based cellular binding assay, HLA-A*1101 (B-cell line BVR); details: for HLA binding Affinity (Table 5): HLA type A11
T4 construct: B-cell lines used are: CAA (A*0101), EKR (A*0301), BVR (A*1101), VIJF (A*2401); endogenous in cells; host or cells: B-cell line BVR

HLA-A*1101 [6] = target: T4, HLA-A*1101; assay: Stability of peptide-HLA complex, binding at 4° C. and 20° C., HLA-A*1101; details: for HLA binding Stability (Table 5): HLA type A11; for Peptide Binding Stability: HLA-A*1101, IC50 at 20° C. vs 4° C.
Procedure: as §1, §2

[7] = HLA-A*1101, IC50 category, read-out: Peptide Binding Affinity

Compound	HLA binding Affinity (Table 5) (HLA-A*0301 [1])	IC50 (HLA-A*0301 [1])	HLA binding Affinity (Table 5) (HLA-A*1101 [5])	IC50 (HLA-A*1101 [5]; [7])	Peptide Binding Affinity (HLA-A*1101 [5]; HLA-A*1101, IC50 category)	HLA binding Stability (Table 5) (HLA-A*0301 [2])	Peptide Binding Stability (HLA-A*0301 [2])	Proteasomal Cleavage of C-terminus, IP (RMA) [3]	Proteasomal Cleavage of C-terminus, IP (JY) [4]	HLA binding Stability (Table 5) (HLA-A*1101 [6])	Peptide Binding Stability (HLA-A*1101 [6])	Peptide Binding Affinity (HLA-A*0301 [1])	IC50 (HLA-A*1101 [5])
GFLHSGTAK [p53 112-120]	int	5 to 15 µM	int	5 to 15 µM		− (The rest was designated as unstable peptide binding.)	− (The rest was designated as unstable peptide binding.)	+ (Major cleavage sites are defined as more than >1% of total digested peptide within the first hour)	+ (Major cleavage sites are defined as more than >1% of total digested peptide within the first hour)	− (The rest was designated as unstable peptide binding.)	− (The rest was designated as unstable peptide binding.)		
C[C@@H](O)[C@H](NC(=O)[C@@H](N)CC(N)=O)C(=O)N[C@@H](CO)C(=O)N[C@@H](CO)C(=O)N[C@@H](CO)C(=O)N1CCC[C@H]1C(=O)N[C@@H](CCC(N)=O)C(=O)N1CCC[C@H]1C(=O)N[C@@H](CCCCN)C(=O)N[C@@H](CCCCN)C(=O)O [p53 311-320]			high		high					+/− (Peptides that displayed IC50 at 20 °C of more than twice the IC50 at 4 °C but IC50 < 15 μM were considered to bind with intermediate stability.)	+/− (Peptides that displayed IC50 at 20 °C of more than twice the IC50 at 4 °C but IC50 < 15 μM were considered to bind with intermediate stability.)		
CC(C)C[C@H](NC(=O)[C@H](Cc1ccccc1)NC(=O)CNC(=O)[C@H](CC(C)C)NC(=O)[C@@H](N)CCCNC(=N)N)C(=O)N[C@@H](Cc1c[nH]cn1)C(=O)N[C@@H](CO)C(=O)NCC(=O)N[C@H](C(=O)N[C@@H](C)C(=O)N[C@@H](CCCCN)C(=O)O)[C@@H](C)O [p53 110-120]							+ (Stable peptides displayed IC50 at 20 °C that deviated <2 times of the IC50 at 4° C.)	+ (Major cleavage sites are defined as more than >1% of total digested peptide within the first hour)	+ (Major cleavage sites are defined as more than >1% of total digested peptide within the first hour)			high	
CC(C)C[C@H](NC(=O)[C@H](Cc1c[nH]cn1)NC(=O)[C@H](CO)NC(=O)[C@H](CO)NC(=O)[C@H](Cc1c[nH]cn1)NC(=O)[C@H](C)NC(=O)[C@@H](N)CCCNC(=N)N)C(=O)N[C@@H](CCCCN)C(=O)O [p53 363-370]	high		int	5 to 15 µM		+ (Stable peptides displayed IC50 at 20 °C that deviated <2 times of the IC50 at 4° C.)	+ (Stable peptides displayed IC50 at 20 °C that deviated <2 times of the IC50 at 4° C.)			+/− (Peptides that displayed IC50 at 20 °C of more than twice the IC50 at 4 °C but IC50 < 15 μM were considered to bind with intermediate stability.)	+/− (Peptides that displayed IC50 at 20 °C of more than twice the IC50 at 4 °C but IC50 < 15 μM were considered to bind with intermediate stability.)	high	
GQSTSRHKK [p53 374-382]			int							+/− (Peptides that displayed IC50 at 20 °C of more than twice the IC50 at 4 °C but IC50 < 15 μM were considered to bind with intermediate stability.)	+/− (Peptides that displayed IC50 at 20 °C of more than twice the IC50 at 4 °C but IC50 < 15 μM were considered to bind with intermediate stability.)		5 to 15 µM

Second part, led by results:

HLA binding Affinity (Table 5) (HLA-A*0301 [1])	IC50 (HLA-A*0301 [1])	HLA binding Affinity (Table 5) (HLA-A*1101 [5])	IC50 (HLA-A*1101 [5]; [7])	Peptide Binding Affinity (HLA-A*1101 [5]; HLA-A*1101, IC50 category)	Compound	HLA binding Stability (Table 5) (HLA-A*0301 [2])	Peptide Binding Stability (HLA-A*0301 [2])	Proteasomal Cleavage of C-terminus, IP (RMA) [3]	Proteasomal Cleavage of C-terminus, IP (JY) [4]	HLA binding Stability (Table 5) (HLA-A*1101 [6])	Peptide Binding Stability (HLA-A*1101 [6])	Peptide Binding Affinity (HLA-A*0301 [1])	IC50 (HLA-A*1101 [5])
int	5 to 15 µM				CC(C)C[C@H](NC(=O)[C@@H](N)Cc1ccccc1)C(=O)N[C@@H](Cc1c[nH]cn1)C(=O)N[C@@H](CO)C(=O)NCC(=O)N[C@H](C(=O)N[C@@H](C)C(=O)N[C@@H](CCCCN)C(=O)O)[C@@H](C)O [p53 113-120]	− (The rest was designated as unstable peptide binding.)	+/− (Peptides that displayed IC50 at 20 °C of more than twice the IC50 at 4 °C but IC50 < 15 μM were considered to bind with intermediate stability.)	+ (Major cleavage sites are defined as more than >1% of total digested peptide within the first hour)	+ (Major cleavage sites are defined as more than >1% of total digested peptide within the first hour)				
		high		high	C[C@@H](O)[C@H](N)C(=O)N[C@@H](CO)C(=O)N[C@@H](CO)C(=O)N[C@@H](CO)C(=O)N1CCC[C@H]1C(=O)N[C@@H](CCC(N)=O)C(=O)N1CCC[C@H]1C(=O)N[C@@H](CCCCN)C(=O)O [p53 312-319]					+/− (Peptides that displayed IC50 at 20 °C of more than twice the IC50 at 4 °C but IC50 < 15 μM were considered to bind with intermediate stability.)	+/− (Peptides that displayed IC50 at 20 °C of more than twice the IC50 at 4 °C but IC50 < 15 μM were considered to bind with intermediate stability.)		
		int	5 to 15 µM		RTEEENLRK [p53 283-291]					+/− (Peptides that displayed IC50 at 20 °C of more than twice the IC50 at 4 °C but IC50 < 15 μM were considered to bind with intermediate stability.)	+/− (Peptides that displayed IC50 at 20 °C of more than twice the IC50 at 4 °C but IC50 < 15 μM were considered to bind with intermediate stability.)		
		high		high	C[C@@H](O)[C@H](NC(=O)[C@@H](N)CC(N)=O)C(=O)N[C@@H](CO)C(=O)N[C@@H](CO)C(=O)N[C@@H](CO)C(=O)N1CCC[C@H]1C(=O)N[C@@H](CCC(N)=O)C(=O)N1CCC[C@H]1C(=O)N[C@@H](CCCCN)C(=O)O [p53 311-319]					+/− (Peptides that displayed IC50 at 20 °C of more than twice the IC50 at 4 °C but IC50 < 15 μM were considered to bind with intermediate stability.)	+/− (Peptides that displayed IC50 at 20 °C of more than twice the IC50 at 4 °C but IC50 < 15 μM were considered to bind with intermediate stability.)		
